Test results reported in PubChem BioAssay (NCI).
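Interpolation was linear, between the two tested concentrations surrounding the appropriate level; five concentrations were tested over 48 hours in 96-well plates. Here, GI50 denotes the concentration required for 50% inhibition of growth. Definition used: TGI = concentration required for complete inhibition of growth.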

Legend:
Test in all cases: growth of human tumour cells (NCI), 48 h
SN12C renal = system: SN12C renal
786-0 renal = system: 786-0 renal
KM12 colon = system: KM12 colon
PC-3 prostate = system: PC-3 prostate
HL-60(TB) leukemia = system: HL-60(TB) leukemia
MALME-3M melanoma = system: MALME-3M melanoma
UACC-62 melanoma = system: UACC-62 melanoma
EKVX NSCLC = system: EKVX NSCLC
TK-10 renal = system: TK-10 renal
RXF 393 renal = system: RXF 393 renal

SMILES: O=C1C2CC(Cl)C(SSC3CC4C(=O)N(SC(Cl)(Cl)C(Cl)Cl)C(=O)C4CC3Cl)CC2C(=O)N1SC(Cl)(Cl)C(Cl)Cl (stereo not drawn)
- TGI (SN12C renal): 5.24 µM
- TGI (786-0 renal): 3.65 µM
- TGI (KM12 colon): > 51 µM
- TGI (PC-3 prostate): 2.79 µM
- TGI (HL-60(TB) leukemia): 1.83 µM
- TGI (MALME-3M melanoma): 2.86 µM
- TGI (UACC-62 melanoma): 4.49 µM
- TGI (EKVX NSCLC): 15.5 µM
- TGI (TK-10 renal): 7.07 µM
- TGI (RXF 393 renal): 3.17 µM

SMILES: NC(N)=NC(CC(=O)O)c1ccccc1 (stereo not drawn)
- TGI (SN12C renal): > 100 µM
- TGI (786-0 renal): > 100 µM
- TGI (KM12 colon): > 100 µM
- TGI (PC-3 prostate): > 100 µM
- TGI (MALME-3M melanoma): > 100 µM
- TGI (UACC-62 melanoma): > 100 µM
- TGI (EKVX NSCLC): > 100 µM
- TGI (TK-10 renal): > 100 µM
- TGI (RXF 393 renal): > 100 µM

SMILES: COc1ccccc1C(=O)/C=C/c1cc2cccc(OC)c2[nH]c1=O
- GI50 (SN12C renal): 0.079 µM
- TGI (SN12C renal): 2.64 µM
- GI50 (786-0 renal): 0.0401 µM
- TGI (786-0 renal): 1.38 µM
- GI50 (KM12 colon): < 0.0167 µM
- TGI (KM12 colon): 1.13 µM
- GI50 (PC-3 prostate): 0.0503 µM
- TGI (PC-3 prostate): 2.27 µM
- GI50 (HL-60(TB) leukemia): 0.0144 µM
- TGI (HL-60(TB) leukemia): 0.0583 µM
- GI50 (MALME-3M melanoma): 0.0511 µM
- TGI (MALME-3M melanoma): 4.6 µM
- GI50 (UACC-62 melanoma): 0.0412 µM
- TGI (UACC-62 melanoma): 1.93 µM
- GI50 (EKVX NSCLC): 0.375 µM
- TGI (EKVX NSCLC): 3.17 µM
- GI50 (TK-10 renal): 1.14 µM
- TGI (TK-10 renal): 11.5 µM
- GI50 (RXF 393 renal): 0.0584 µM
- TGI (RXF 393 renal): 0.991 µM

SMILES: CCCCCCCCCCCCc1ccc(C(=O)/C=C/C(=O)O)cc1
- GI50 (SN12C renal): 1.83 µM
- TGI (SN12C renal): 4.14 µM
- GI50 (786-0 renal): 2.03 µM
- TGI (786-0 renal): 4.05 µM
- GI50 (KM12 colon): 11.7 µM
- TGI (KM12 colon): 25.9 µM
- GI50 (PC-3 prostate): 8.12 µM
- TGI (PC-3 prostate): 26.6 µM
- GI50 (HL-60(TB) leukemia): 1.56 µM
- TGI (HL-60(TB) leukemia): 3.58 µM
- GI50 (MALME-3M melanoma): 1.82 µM
- TGI (MALME-3M melanoma): 3.6 µM
- GI50 (UACC-62 melanoma): 1.71 µM
- TGI (UACC-62 melanoma): 3.66 µM
- GI50 (EKVX NSCLC): 4.09 µM
- TGI (EKVX NSCLC): 17.1 µM
- GI50 (TK-10 renal): 1.82 µM
- TGI (TK-10 renal): 3.64 µM
- GI50 (RXF 393 renal): 1.76 µM
- TGI (RXF 393 renal): 3.34 µM

SMILES: O=C1CC(=O)N(C2CCCCC2)C(=O)N1c1ccccc1S(=O)(=O)Oc1ccccc1
- TGI (SN12C renal): > 100 µM
- TGI (786-0 renal): 33.3 µM
- TGI (KM12 colon): > 100 µM
- TGI (PC-3 prostate): > 100 µM
- TGI (HL-60(TB) leukemia): > 100 µM
- TGI (UACC-62 melanoma): > 100 µM
- TGI (EKVX NSCLC): > 100 µM
- TGI (TK-10 renal): > 100 µM
- TGI (RXF 393 renal): > 100 µM

SMILES: O=[N+]([O-])c1ccc(Sc2ncccn2)c([N+](=O)[O-])c1
- GI50 (SN12C renal): 3.46 µM
- TGI (SN12C renal): 13.9 µM
- GI50 (786-0 renal): 4.59 µM
- TGI (786-0 renal): 16.1 µM
- GI50 (KM12 colon): 4.36 µM
- TGI (KM12 colon): 15.9 µM
- GI50 (PC-3 prostate): 2.13 µM
- TGI (PC-3 prostate): 15.1 µM
- GI50 (HL-60(TB) leukemia): 2.37 µM
- TGI (HL-60(TB) leukemia): 15.8 µM
- GI50 (MALME-3M melanoma): 1.75 µM
- TGI (MALME-3M melanoma): 4.72 µM
- GI50 (UACC-62 melanoma): 4.31 µM
- TGI (UACC-62 melanoma): 16.2 µM
- GI50 (EKVX NSCLC): 3.96 µM
- TGI (EKVX NSCLC): 18.7 µM
- GI50 (TK-10 renal): 2.57 µM
- TGI (TK-10 renal): 5.77 µM
- GI50 (RXF 393 renal): 0.0489 µM
- TGI (RXF 393 renal): 3.23 µM

SMILES: O=C1C=C[C@]2(C[C@@H](c3cccc(C(F)(F)F)c3)O[C@@H](c3cccc(C(F)(F)F)c3)O2)O1
- GI50 (SN12C renal): 2.91 µM
- TGI (SN12C renal): 12.4 µM
- GI50 (786-0 renal): 1.35 µM
- TGI (786-0 renal): 2.95 µM
- GI50 (KM12 colon): 3.09 µM
- TGI (KM12 colon): 13.9 µM
- GI50 (PC-3 prostate): 2.4 µM
- TGI (PC-3 prostate): 8.27 µM
- GI50 (HL-60(TB) leukemia): 1.88 µM
- TGI (HL-60(TB) leukemia): 8.34 µM
- GI50 (MALME-3M melanoma): 2.27 µM
- TGI (MALME-3M melanoma): 7.06 µM
- GI50 (UACC-62 melanoma): 1.77 µM
- TGI (UACC-62 melanoma): 4.63 µM
- GI50 (EKVX NSCLC): 12.9 µM
- TGI (EKVX NSCLC): 27.7 µM
- GI50 (TK-10 renal): 1.66 µM
- TGI (TK-10 renal): 3.22 µM
- GI50 (RXF 393 renal): 1.67 µM
- TGI (RXF 393 renal): 3.91 µM
